Laboratory results as given in ChEMBL document CHEMBL2086334, “Fluorogenic assay of alkaline phosphatase activity based on the modulation of excited-state intramolecular proton transfer” (Bioorg Med Chem Lett, 2012).
Activity calls are given as the source filed them. No cut-off for these calls is given here.

Tests used:
[1] = Inhibition of alkaline phosphatase
[2] = Activity of alkaline phosphatase assessed as compound hydrolysis assessed as increase in fluorescence intensity measured every 30 secs for 10 mins by Lineweaver-Burk plot analysis
[3] = Activity of alkaline phosphatase assessed as compound hydrolysis at 20 uM assessed as increase in fluorescence intensity every 1 min for 10 mins by fluorescence spectrophotometry relative to control
[4] = Activity of alkaline phosphatase assessed as compound hydrolysis at 20 uM at 0.1 to 50 nM enzyme concentration measured every 1 min for 10 mins by fluorescence spectrophotometry
[5] = Activity of levamisole-pretreated alkaline phosphatase assessed as compound hydrolysis at 20 uM measured every 0.5 mins for 10 mins by fluorescence spectrophotometry

IC50 [1]	Km [2]	kcat [2]	fold change (FC) [3]	Activity [4]	Activity [5]	Compound
13.3 µM						c1ccc([C@H]2CN3CCSC3=N2)cc1 [LEVAMISOLE]
	1.9 µM	0.09 s⁻¹	455	Active	inactive	O=P(O)(O)Oc1ccccc1-c1nc(-c2ccccc2)cs1
